Data: patent US20250195524A1, “PYRIMIDO-PYRIDAZINONE COMPOUND AS TOLL-LIKE RECEPTOR AGONIST” (SHANGHAI VISONPHARMA CO., LTD., priority 2022, published 2025)

Molecular target: T1, human TLR8 (Homo sapiens, UniProt Q9NR97)
T1 construct: host or cells: HEK-Blue hTLR8 (HEK293-derived reporter cells)
T1 sequence (Q9NR97 27-1041): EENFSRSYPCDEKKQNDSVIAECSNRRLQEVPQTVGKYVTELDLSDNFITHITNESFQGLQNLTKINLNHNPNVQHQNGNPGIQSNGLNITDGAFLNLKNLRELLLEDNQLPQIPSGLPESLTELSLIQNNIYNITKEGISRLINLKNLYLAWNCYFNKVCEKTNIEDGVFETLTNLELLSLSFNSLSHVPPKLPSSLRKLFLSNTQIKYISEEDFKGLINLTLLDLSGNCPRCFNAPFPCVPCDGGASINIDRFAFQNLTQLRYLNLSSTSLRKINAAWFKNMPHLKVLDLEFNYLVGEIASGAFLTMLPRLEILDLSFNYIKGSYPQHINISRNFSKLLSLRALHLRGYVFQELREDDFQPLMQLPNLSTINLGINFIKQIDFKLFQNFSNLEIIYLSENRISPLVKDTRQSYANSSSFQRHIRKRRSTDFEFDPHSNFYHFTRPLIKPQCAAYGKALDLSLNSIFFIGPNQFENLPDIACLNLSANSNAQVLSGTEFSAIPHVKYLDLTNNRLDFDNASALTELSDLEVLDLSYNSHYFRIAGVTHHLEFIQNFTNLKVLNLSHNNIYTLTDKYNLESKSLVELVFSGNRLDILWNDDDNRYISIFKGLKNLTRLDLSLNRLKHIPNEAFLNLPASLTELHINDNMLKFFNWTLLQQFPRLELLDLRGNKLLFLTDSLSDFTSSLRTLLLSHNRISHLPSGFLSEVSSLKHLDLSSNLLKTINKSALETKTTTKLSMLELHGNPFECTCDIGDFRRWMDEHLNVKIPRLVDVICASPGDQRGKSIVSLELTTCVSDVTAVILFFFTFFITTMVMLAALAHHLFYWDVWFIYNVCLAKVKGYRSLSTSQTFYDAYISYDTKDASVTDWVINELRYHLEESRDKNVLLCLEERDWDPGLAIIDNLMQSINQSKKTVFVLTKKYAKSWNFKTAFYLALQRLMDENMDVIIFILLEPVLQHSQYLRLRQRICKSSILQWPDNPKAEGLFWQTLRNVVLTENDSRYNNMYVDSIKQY
Assay: HEK-Blue hTLR8 SEAP reporter gene agonism assay
Type: cell-based
Settings: HEK-Blue hTLR8 cells, SEAP (Quanti-blue, 650 nm), 16-22 hours incubation
Protocol: The agonistic activity of the compounds of the present invention on TLR7 or TLR8 was evaluated using HEK-Blue™ cells stably expressing human TLR7 or TLR8. And the agonistic activity was assayed using their ability to induce the SEAP reporter gene under the control of the IFN-β minimal promoter fused to five NF-κB and ap-1 binding sites, specifically as follows:
HEK-Blue™ hTLR7 (Invivogen, 80,000 cells per well) or HEK-Blue™ hTLR8 (Invivogen, 60,000 cells per well) was added to a 96-well cell culture plate, the compound to be tested is added whereafter, and the final concentration of the compound(s) to be tested in the medium ranged from 0.001 to 36 μM, then incubated for 16-22 hours. SEAP levels in the cell culture medium were detected using HEK-Blue assay reagent Quanti-blue (Invivogen) according to the manufacturer's instructions. Neo2 Multifunctional Enzyme Labeler (Bio-tek) was used to determine the light absorption at 650 nm. GraphPad Prism was utilized to calculate the EC50, which is the half effective concentration of the drug.

## CCCC(C)Nc1nc(N)nc2cnn(Cc3ccc(CN4CCCC4)cc3)c(=O)c12 (centres unmarked) [Compound I-1, 2-amino-4-(pentan-2-ylamino)-6-(4-(pyrrolidin-1-ylmethyl)benzyl)pyrimido[4,5-d]pyridazin-5(6H)-one]
  EC50: 107 nM

## CCCCNc1nc(N)nc2cnn(Cc3ccc(C(=O)N4CCNCC4)cc3)c(=O)c12 [Compound I-2, 2-amino-4-(butylamino)-6-(4-(piperazine-1-carbonyl)benzyl)pyrimido[4,5-d]pyridazin-5(6H)-one]
  EC50: 102 nM

## CCCCNc1nc(N)nc2cnn(Cc3ccc(C(=O)N4CCN(C)CC4)cc3)c(=O)c12 [Compound I-3, 2-amino-4-(butylamino)-6-(4-(4-methylpiperazine-1-carbonyl)benzyl)pyrimido[4,5-d]pyridazin-5(6H)-one]
  EC50: 615 nM

## COCCNc1nc(N)nc2cnn(Cc3ccc(CN4CCCC4)cc3)c(=O)c12 [Compound I-4, 2-amino-4-((2-methoxyethyl)amino)-6-(4-(pyrrolidin-1-ylmethyl)benzyl)pyrimido[4,5-d]pyridazin-5(6H)-one]
  EC50: 403 nM

## CCCCNc1nc(N)nc2cnn(Cc3ccc(CN4CCCC4)cc3)c(=O)c12 [Compound I-5, 2-amino-4-(butylamino)-6-(4-(pyrrolidin-1-ylmethyl)benzyl)pyrimido[4,5-d]pyridazin-5(6H)-one]
  EC50: 149 nM

## CCCCNc1nc(N)nc2cnn(Cc3ccc(CN(C)C)cc3)c(=O)c12 [Compound I-7, 2-amino-4-(butylamino)-6-(4-((dimethylamino)methyl)benzyl)pyrimido[4,5-d]pyridazin-5(6H)-one]
  EC50: 153 nM

## CCCCNc1nc(N)nc2cnn(Cc3ccc4c(c3)CCNC4)c(=O)c12 [Compound I-8, 2-amino-4-(butylamino)-6-((1,2,3,4-tetrahydroisoquinolin-6-yl)methyl)pyrimido[4,5-d]pyridazin-5(6H)-one]
  EC50: 229 nM

## CCCCNc1nc(N)nc2cnn(Cc3ccc(CN4CCNCC4)cc3)c(=O)c12 [Compound I-9, 2-amino-4-(butylamino)-6-(4-(piperazin-1-ylmethyl)benzyl)pyrimido[4,5-d]pyridazin-5(6H)-one]
  EC50: 183 nM

## CCCCNc1nc(N)nc2cnn(Cc3ccc(CNC4CC4)cc3)c(=O)c12 [Compound I-10, 2-amino-4-(butylamino)-6-(4-((cyclopropylamino)methyl)benzyl)pyrimido[4,5-d]pyridazin-5(6H)-one]
  EC50: 569 nM

## CCCCNc1nc(N)nc2cnn(Cc3ccc(CN4CC5CC(C4)N5)cc3)c(=O)c12 [Compound I-11, 6-(4-((3,6-Diazabicyclo[3.1.1]heptan-3-yl)methyl)benzyl)-2-amino-4-(butylamino)pyrimido[4,5-d]pyridazin-5(6H)-one]
  EC50: 267 nM

## CCCCNc1nc(N)nc2cnn(Cc3ccc(CN4CCC5(CNC5)C4)cc3)c(=O)c12 [Compound I-12, 6-(4-((2,6-Diazaspiro[3.4]octan-6-yl)methyl)benzyl)-2-amino-4-(butylamino)pyrimido[4,5-d]pyridazin-5(6H)-one]
  EC50: 185 nM

## CCCCNc1nc(N)nc2cnn(Cc3ccc4c(c3)CCN(C(C)C)C4)c(=O)c12 [Compound I-13, 2-amino-4-(butylamino)-6-((2-isopropyl-1,2,3,4-tetrahydroisoquinolin-6-yl)methyl)pyrimido[4,5-d]pyridazin-5(6H)-one]
  EC50: 549 nM

## CCCCNc1nc(N)nc2cnn(Cc3ccc(CN4CCCC4)cc3OC)c(=O)c12 [Compound I-14, 2-amino-4-(butylamino)-6-(2-methoxy-4-(pyrrolidin-1-ylmethyl)benzyl)pyrimido[4,5-d]pyridazin-5(6H)-one]
  EC50: 365 nM

## CCCCNc1nc(N)nc2cnn(Cc3ccc(CN4CCCC4)cc3F)c(=O)c12 [Compound I-15, 2-amino-4-(butylamino)-6-(2-fluoro-4-(pyrrolidin-1-ylmethyl)benzyl)pyrimido[4,5-d]pyridazin-5(6H)-one]
  EC50: 326 nM

## CCCCNc1nc(N)nc2cnn(Cc3ccc(CN4CCCC4)nc3OC)c(=O)c12 [Compound I-16, 2-amino-4-(butylamino)-6-((2-methoxy-6-(pyrrolidin-1-ylmethyl)pyridin-3-yl)methyl)pyrimido[4,5-d]pyridazin-5(6H)-one]
  EC50: 354 nM

## CCCCNc1nc(N)nc2cnn(Cc3ccc(CN4CCCC4)c(OC)c3)c(=O)c12 [Compound I-17, 2-amino-4-(butylamino)-6-(3-methoxy-4-(pyrrolidin-1-ylmethyl)benzyl)pyrimido[4,5-d]pyridazin-5(6H)-one]
  EC50: 368 nM

## CCCCNc1nc(N)nc2cnn(Cc3ccc(CN4CCCC4)c(F)c3)c(=O)c12 [Compound I-18, 2-amino-4-(butylamino)-6-(3-fluoro-4-(pyrrolidin-1-ylmethyl)benzyl)pyrimido[4,5-d]pyridazin-5(6H)-one]
  EC50: 218 nM

## CCCCNc1nc(N)nc2cnn(Cc3ccc(CN(CCC)CCO)cc3)c(=O)c12 [Compound I-21]
  EC50: 388 nM

## CCCCNc1nc(N)nc2cnn(Cc3ccc(CN(CCO)CCO)cc3)c(=O)c12 [Compound I-23, 2-amino-6-(4-((bis(2-hydroxyethyl)amino)methyl)benzyl)-4-(butylamino)pyrimido[4,5-d]pyridazin-5(6H)-one]
  EC50: 222 nM

## CCC[C@@H](C)Nc1nc(N)nc2cnn(Cc3ccc(CN(CCC)CCO)cc3)c(=O)c12 [Compound I-26]
  EC50: 322 nM

## CCC[C@@H](C)Nc1nc(N)nc2cnn(Cc3ccc(CN(CCO)CCO)cc3)c(=O)c12 [Compound I-27, (R)-2-amino-6-(4-((bis(2-hydroxyethyl)amino)methyl)benzyl)-4-(pentan-2-ylamino)pyrimido[4,5-d]pyridazin-5(6H)-one]
  EC50: 286 nM

## CCC[C@@H](C)Nc1nc(N)nc2cnn(Cc3ccc(CN4CC5(COC5)C4)cc3)c(=O)c12 [Compound I-41, (R)-6-(4-((2-oxo-6-azaspiro[3.3]heptan-6-yl)methyl)benzyl)-2-amino-4-(pentan-2-ylamino)pyrimido[4,5-d]pyridazin-5(6H)-one]
  EC50: 101 nM

## CCC[C@@H](C)Nc1nc(N)nc2cnn(Cc3ccc(CNCCO)cc3)c(=O)c12 [Compound I-42]
  EC50: 74 nM

## CCC[C@@H](C)Nc1nc(N)nc2cnn(Cc3ccc(CN4CC5(COC5)C4)cc3OC)c(=O)c12 [Compound I-43, (R)-6-(4-((2-oxo-6-azaspiro[3.3]heptan-6-yl)methyl)-2-methoxybenzyl)-2-amino-4-(pentan-2-ylamino)pyrimido[4,5-d]pyridazin-5(6H)-one]
  EC50: 233 nM

## CCC[C@@H](C)Nc1nc(N)nc2cnn(Cc3ccc(CNCCO)cc3OC)c(=O)c12 [Compound I-44]
  EC50: 112 nM

## CCC[C@@H](C)Nc1nc(N)nc2cnn(Cc3ccc(C4CCNCC4)cc3)c(=O)c12 [Compound I-55, (R)-2-amino-4-(pentan-2-ylamino)-6-(4-(piperidin-4-yl)benzyl)pyrimido[4,5-d]pyridazin-5(6H)-one]
  EC50: 169 nM

## CCC[C@@H](C)Nc1nc(N)nc2cnn(Cc3ccc(C(=O)N4CCNCC4)cc3)c(=O)c12 [Compound I-56, (R)-2-amino-4-(pentan-2-ylamino)-6-(4-(piperazine-1-carbonyl)benzyl)pyrimido[4,5-d]pyridazin-5(6H)-one]
  EC50: 70 nM

## CCC[C@@H](CO)Nc1nc(N)nc2cnn(Cc3ccc(C(=O)N4CCNCC4)cc3)c(=O)c12 [Compound I-58, (S)-2-amino-4-((1-hydroxypentan-2-yl)amino)-6-(4-(piperazine-1-carbonyl)benzyl)pyrimido[4,5-d]pyridazin-5(6H)-one]
  EC50: 73 nM

## CCC[C@@H](CO)Nc1nc(N)nc2cnn(Cc3ccc(CN4CCCC4)cc3)c(=O)c12 [Compound I-59, (S)-2-amino-4-((1-hydroxypentan-2-yl)amino)-6-(4-(pyrrolidin-1-ylmethyl)benzyl)pyrimido[4,5-d]pyridazin-5(6H)-one]
  EC50: 9 nM
